The results in this text go back to article PMC8001472, “Novel Selective IDO1 Inhibitors with Isoxazolo[5,4-d]pyrimidin-4(5H)-one Scaffold” (Pharmaceuticals, 2021).

One data set concerns the target IDO1 (Homo sapiens, UniProt P14902). Description: hIDO1 inhibitory potency evaluation (fluorescence assay, NFK-derived fluorophore). The class given is biochemical. Particulars: for IC50: recombinant hIDO1, mean ± SD of at least two independent determinations, read-out: IDO1 IC50; for inhibition at 100 µM: 100 µM compound, n.a. = not active, read-out: IDO1 % of Inhibition @ 100 µM. Further details: gene encoding human IDO1 residues 6-403 His-tagged at the N-terminus; His tag (N); made in house; host or cells: Escherichia coli NiCo21.

IDO1, sequence (P14902 6-403): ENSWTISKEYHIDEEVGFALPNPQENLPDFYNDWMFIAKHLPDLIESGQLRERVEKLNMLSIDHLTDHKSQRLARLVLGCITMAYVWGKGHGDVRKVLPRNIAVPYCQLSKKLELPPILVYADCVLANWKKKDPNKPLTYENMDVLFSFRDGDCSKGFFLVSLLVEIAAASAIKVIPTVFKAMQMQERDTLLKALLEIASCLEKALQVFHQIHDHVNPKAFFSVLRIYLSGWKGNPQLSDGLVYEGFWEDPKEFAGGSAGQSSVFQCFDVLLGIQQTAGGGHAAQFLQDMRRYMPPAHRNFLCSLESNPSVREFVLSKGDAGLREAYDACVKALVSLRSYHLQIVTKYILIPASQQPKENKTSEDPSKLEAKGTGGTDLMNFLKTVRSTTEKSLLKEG

On to `O=C(Cn1cnc2onc(-c3cccs3)c2c1=O)Nc1ccc([N+](=O)[O-])cc1` [Compound 51], for which the IC50 (commonly the concentration that gives 50% inhibition) on IDO1 was 53 µM.
Turning to `O=C(Cn1cnc2onc(-c3ccc(F)cc3)c2c1=O)Nc1cccc2ccccc12` [Compound 35], the melting point (as a rule, the temperature, or range, at which the solid turns liquid) lay within 210 to 215 °C. Besides, the inhibition (commonly the relative decrease from the control value, in per cent) at 100 µM at IDO1 worked out at 20 ± 6%.
`O=C(Cn1cnc2onc(-c3ccc(F)c(F)c3)c2c1=O)N1CCCc2ccccc21` [Compound 47]: the inhibition at 100 µM on IDO1 was determined as 34 ± 1%.
In turn, `COC(=O)c1ccc(CNC(=O)Cn2cnc3onc(-c4ccc(F)cc4)c3c2=O)cc1` [Compound 21] registered a melting point of 165 to 167 °C. Further, the inhibition at 100 µM at IDO1 amounted to 27 ± 3%.
Compound `CC(C)c1ccc(NC(=O)Cn2cnc3onc(-c4ccc(F)cc4)c3c2=O)cc1` [Compound 31] displayed a melting point of 198 to 202 °C. The IC50 on IDO1 is 87 µM.
Compound `COC(=O)c1ccc(NC(=O)Cn2cnc3onc(-c4ccc(F)cc4)c3c2=O)cc1` [Compound 20] showed a melting point of 234 to 236 °C. At IDO1, the “hIDO1 inhibition (in words)” value is given as “low micromolar range” and the IC50 came to 27 µM.
Compound `CN(C)C(=O)Cn1cnc2onc(-c3ccc(F)cc3)c2c1=O` [Compound 13] yielded a melting point of 215 to 217 °C. In addition, the inhibition at 100 µM at IDO1 was 21 ± 5%.
On the same counts, the results for `O=C(Cn1cnc2onc(-c3ccc(F)cc3)c2c1=O)N1CCc2ccccc2C1` [Compound 37] are 201 to 203 °C and 17 ± 5%.
`O=C(Cn1cnc2onc(-c3ccc(F)cc3)c2c1=O)N1CCCCC1` [Compound 14] came in with a melting point of 174 to 176 °C. The inhibition at 100 µM on IDO1 is 27 ± 4%.
`COC(=O)c1cccc(NC(=O)Cn2cnc3onc(-c4ccc(F)cc4)c3c2=O)c1` [Compound 19]: the IC50 at IDO1 was found to be 55 µM.
`COc1ccc(-c2noc3ncn(CC(=O)N4CCCc5ccccc54)c(=O)c23)cc1` [Compound 42] yielded a melting point of 171 to 178 °C. For the same compound, at IDO1, the inhibition at 100 µM is 15 ± 4%.
As for `O=C(Cn1cnc2onc(-c3ccc(F)cc3)c2c1=O)Nc1cccc(C(F)(F)F)c1` [Compound 22], the melting point was in the range of 195 to 200 °C. Moreover, the IC50 on IDO1 came to 55 µM.
Regarding `O=C(Cn1cnc2onc(-c3ccsc3)c2c1=O)N1CCCc2ccccc21` [Compound 52], at IDO1, the inhibition at 100 µM is 23 ± 5%.
`O=C(Cn1cnc2onc(-c3ccc(F)cc3)c2c1=O)Nc1ccc(F)cc1` [Compound 17] had a melting point of 206 to 209 °C. Also, on IDO1, the “hIDO1 inhibition (in words)” value was “only weak inhibition” and the inhibition at 100 µM is 33 ± 2%.
On the same counts, the results for `CS(=O)(=O)c1ccc(NC(=O)Cn2cnc3onc(-c4ccc(F)cc4)c3c2=O)cc1` [Compound 26] are 234 to 238 °C, “inactive” and 11 ± 2%.
Consider `O=C(Cn1cnc2onc(-c3ccc(F)cc3)c2c1=O)Nc1ccc(C2CCCCC2)cc1` [Compound 32], for which, at IDO1, the “hIDO1 inhibition (in words)” value is on record as “low micromolar range” and the IC50 was found to be 22 µM.
In the case of `O=C(Cn1cnc2onc(-c3ccc(Br)cc3)c2c1=O)N1CCCc2ccccc21` [Compound 41], the inhibition at 100 µM on IDO1 is 32 ± 1%.
For `COc1cc(NC(=O)Cn2cnc3onc(-c4ccc(F)cc4)c3c2=O)cc(OC)c1OC` [Compound 34], the melting point is 219 to 221 °C. For the same compound, the “hIDO1 inhibition (in words)” value on IDO1 is “inactive”.
Take `O=C(Cn1cnc2onc(-c3ccc(F)cc3)c2c1=O)N1CCCc2ccccc21` [Compound 12]: the IC50 on IDO1 came to 50 µM.
With `O=C(Cn1cnc2onc(-c3ccc(OCc4ccccc4)cc3)c2c1=O)N1CCCc2ccccc21` [Compound 46], the melting point is 200 to 202 °C. Also, the inhibition at 100 µM on IDO1 worked out at 14 ± 3%.
`O=C(Cn1cnc2onc(-c3cccs3)c2c1=O)N1CCCc2ccccc21` [Compound 50]: the melting point is 202 to 205 °C.
Compound `O=C(Cn1cnc2onc(-c3ccc(F)cc3)c2c1=O)NC12CC3CC(CC(C3)C1)C2` [Compound 15] showed a melting point of 204 to 205 °C. For the same compound, at IDO1, the 50% inhibitory concentration (IC50) was found to be 88 µM.
